# In patent US20250009734A1, “METHODS OF INHIBITING FOXO1 FOR TREATMENT OF LYMPHATIC DISORDERS” (UNIVERSITY OF SOUTH FLORIDA, priority 2023, published 2025):
# Columns and labels:
# [1] = test system: human dermal lymphatic endothelial cells (hdLECs); assay: Western blot quantification of protein levels in cultured hdLECs; format: cell-based; details: 0.5 μM, 48 hours, vs vehicle control
# Method: FIGS. 2A-2F. AS1842856 elevates protein expression of valve genes and promotes b-catenin nuclear localization in cultured hdLECs. (A) hdLECs were cultured under static condition and treated for 48 hours with 0.5 μM DMSO (vehicle control) or 0.5 μM AS treatment. Thereafter, proteins were extracted, and western blot perform for the indicated proteins. ACTB is the loading control. (B) Quantification results of indicated proteins in western blot from three independent experiments. (C-F) Immunostaining of cultured hdLECs for PROX1 and CTNNB1 protein. All values are mean±SEM. n=3 experiment repeats; ns=not significant; *p≤0.05, **p≤0.01, ***p≤0.001. Vehicle control: 0.5 μM DMSO for 48 hours treatment. AS1842856: 0.5 μM AS1842856 for 48 hours treatment. Cells were stained for PROX1 (green) and CTNNB1 (purple). (E) and (F) are the merged images for PROX1 and CTNNB1. Scale bar is 50 μm.
# Next, the inventors performed western blot on the cells treated with 0.5 μM for 48 hours to determine whether the expression of these genes on the protein level was consistent with the PCR results. Three independent experiments of cultured hdLECs were performed, similarly to the quantitative RT-qPCR experiments. Protein levels of FOXC2, GATA2, KLF4, ITGα9, GJA4, activated β-catenin, total β-catenin, PROX1, and FOXO1 were quantified from western blot.
# Human dermal lymphatic endothelial cells (hdLECs) purchased from Promocell (C-12216) were cultured in EBM-V2 (PromoCell, C-22121) media on fibronectin (20 μl/well) coated 6-well plates. hdLECs were treated with 4 different conditions: DMSO (1 μM), AS1842856 (EMD Millipore Corporation) 0.1 μM, 0.5 μM and 1 μM for 3 different time points: 24, 48, and 72 hours for qRT-PCR. For western blot, hdLECs were treated with 0.5 μM AS1842856 for 48 hours.
# hdLECs were washed 3 times with 1×PBS and 1×RIPA buffer and 100× phosphatase inhibitor (Pierce™, Thermoscientific) was added. A cell scraper was used to scrape the hdLECs off the 6-well plate. hdLECs were pipetted and submerged in lysis RIPA solution. The lysate was collected in a 1.5 mL protein LoBind tube and incubated for 15 mins in ice on an orbital shaker (Belly button, IBI Scientific) for complete lysis. The lysates were then centrifuged for 20 mins at 18300 RPM at 4° C. to and the supernatant was collected in a separate Protein LoBind tube without disturbing the pellet. A Bicinchoninic acid assay (BCA assay, Pierce™, Thermofisher) was performed to calculate protein concentration according to manufacturer's instructions and 25 μg of the total protein was utilized to perform the western blot. The Invitrogen™ mini gel tank apparatus was used to run the western blot on a 4-12% Blot™ Bis Tris Plus polyacrylamide gel. Protein transfer to a PVDF membrane was carried out using an iBlot 2 dry blotting system (Lifesciences, Thermofisher) under the P0 module. The iBind Flex western system (Thermo Fisher Scientific) was used to process the mini blots utilizing an incubation time of >2.5 hours after which the blots were imaged using a Bio-Rad ChemiDoc imaging system.
# Quantification analysis of western blot bands was performed in the following manner: 1. Unsaturated western blot images (.scn) were opened with Image Lab 6.1 (Bio-Rad); 2. Using the “lane and bands” tool on the left sidebar of Image Lab, the lanes were defined and adjusted manually; 3. Using the “lane and bands” tool, the bands were identified manually with “add” bands option; 4. The “lane profile” tool was used to omit background; 5. The standard and sample lanes were labeled on the “image info” tool; 6. The adjusted volume (Int) value was obtained using the “lane analysis” tool on Image Lab; 7. Each protein's band volume was normalized to the band volume of the housekeeping protein (b-Actin); 8. Relative expression of each protein was calculated by normalizing the band volume of the experimental group (AS 0.5) to its control (DMSO).
# [2] = Nagashima et al., 2010; cited from earlier work
compound,measurement,setting,value
CCn1cc(C(=O)O)c(=O)c2c(N)c(F)c(NC3CCCCC3)cc21 [AS1842856],FOXC2 protein expression level,[1],significantly upregulated
same,FOXO1 protein expression,[1],did not change
same,GATA2 protein expression level,[1],significantly upregulated
same,GJA4 protein expression level,[1],significantly upregulated
same,ITGA9 protein expression level,[1],significantly upregulated
same,KLF4 protein expression level,[1],significantly upregulated
same,PROX1 protein level,[1],did not alter
same,amount of active (non-phosphorylated) β-catenin protein,[1],increased significantly
same,amount of p-GSK3β,[1],significantly decreased
same,amount of total GSK3β,[1],significantly increased
same,amount of total β-catenin protein,[1],increased significantly
same,cell permeability,[2],cell permeable
